Assay results taken from patent publication US5922734A, “6-[triazolyl[3-(trifluoromethyl)phenyl]methyl]-2-quinolines and -quinolinethiones” (Janssen Pharmaceutica, N.V., priority 1994, dated 1999).
Read-outs that look alike come from different tables or passages of the source.

Legend:
[1] = system: retinoic acid (RA) metabolism; test: Inhibition of retinoic acid (RA) metabolism in MCF-7 human breast cancer cells; format: cell-based; details: MCF7, 3H-RA substrate, Table 1
Procedure: MCF-7 human breast cancer cells were grown as stock cultures according to art-known protocols. One day before the experiment, RA is added to the stock cultures to stimulate RA-metabolism. At the start of the experiment, cell suspensions were incubated in a tissue culture medium containing ^3 H-RA as the substrate. Different concentrations of the test compound (dissolved in 1% DMSO) were added to the incubation mixtures, and at the end of the incubation, the unmetabolized RA is separated from its polar metabolites. The fraction containing the polar ^3 H-labelled metabolites was collected and counted in a scintillation counter. For each experiment, a control and a blank incubation were run in parallel. The IC50 values listed in table 1 are the concentrations needed to reduce the amount of metabolites to 50% of the control.

[2] = system: estradiol undecylate induced keratinization effects; test: Vaginal Keratinization Test on Ovariectomized Rats; format: in vivo; details: Rattus norvegicus, po, lowest active dose
Procedure: Ovariectomized rats were injected subcutaneously with a sesame oil solution containing 100 μg of estradiol undecylate in a volume of 0.1 ml per 100 g body weight and control animals were injected with sesame oil. On day one, two and three, test animals were treated once daily with a per os dose of the test compound and control animals with the drug vehicle (PEG 200). One day after the last treatment, the animals were sacrificed and their vaginas were processed for histological evaluation according to the method described in J. Pharmacol. Exp. Ther. 261(2), 773-779 (1992). A dose at which 50% of the tested rats show complete suppression of the estradiol undecylate induced keratinization effects is defined as an active dose.
In said table, the keratinization effect of the present compound number 3 is compared to the structurally closest art-known compounds, the latter being disclosed in EP-0,371,564.

[3] = 72 h, 50% of ovariectomized rats show complete suppression, per os once daily, 3 days, Table 1, read-out: Keratinization (LAD in mg/kg)
[4] = keratinization effect, per os, ovariectomized rats, comparison with EP-0,371,564 compounds, Table 2, read-out: LAD

SMILES	IC50 [1]	minimal effective dose [2, 3]	minimal effective dose [2, 4]
O=c1ccc2cc(C(c3cccc(C(F)(F)F)c3)n3cncn3)ccc2[nH]1 (racemic) [Compound 3, (±)-6-[1H-1,2,4-triazol-1-yl[3-(trifluoromethyl)phenyl]methyl]-2(1H)-quinolinone]	851 nM	2.5 mg/kg	2.5 mg/kg
Cn1c(=O)ccc2cc(C(c3cccc(C(F)(F)F)c3)n3cncn3)ccc21 (racemic) [Compound 12, (±)-1methyl-6-[1H-1,2,4-triazol-1-yl[3-(trifluoromethyl)phenyl]methyl]-2(1H)-quinolinone]	8590 nM	2.5 mg/kg	–
Cn1c(=S)ccc2cc(C(c3cccc(C(F)(F)F)c3)n3cncn3)ccc21 (racemic) [Compound 21, (±)-1-methyl-6-[1H-1,2,4-triazol-1-yl[3-(trifluoromethyl]phenyl]methyl]-2(1H)-quinolinethione]	4370 nM	5 mg/kg	–
O=c1ccc2cc([C@H](c3cccc(C(F)(F)F)c3)n3cncn3)ccc2[nH]1 [Compound 1, (-)-(R)-6-[1H-1,2,4-triazol-1-yl[3-(trifluoromethyl)phenyl]methyl]-2(1H)-quinolinone]	850 nM	1.25 mg/kg	–
CC(c1cccc(C(F)(F)F)c1)(c1ccc2[nH]c(=O)ccc2c1)n1cncn1 (centres unmarked) [Compound 4]	510 nM	5 mg/kg	–
O=c1ccc2cc(C(F)(c3cccc(C(F)(F)F)c3)n3cncn3)ccc2[nH]1 (centres unmarked) [Compound 5]	> 10000 nM	5 mg/kg	–
Cc1cc(C(c2cccc(C(F)(F)F)c2)n2cncn2)cc2ccc(=O)[nH]c12 (centres unmarked) [Compound 9]	706 nM	10 mg/kg	–
O=c1ccc2cc(C(c3cccc(F)c3)n3ccnc3)ccc2[nH]1 (centres unmarked) [Compound 11-a, reference compound]	–	–	40 mg/kg
Cn1c(=O)ccc2cc(C(F)(c3cccc(C(F)(F)F)c3)n3cncn3)ccc21 (centres unmarked) [Compound 13]	10.2 nM	–	–
FC(F)(F)c1cccc(C(c2ccc3ncccc3c2)n2cncn2)c1 (centres unmarked) [Compound 66-a, reference compound]	–	–	10 mg/kg

More lines, in order of falling IC50 [1], values ahead:

IC50 [1]	SMILES	minimal effective dose [2, 3]	minimal effective dose [2, 4]
3850 nM	O=c1ccc2cc([C@@H](c3cccc(C(F)(F)F)c3)n3cncn3)ccc2[nH]1 [Compound 2]	> 40 mg/kg	–
1470 nM	Nn1c(=O)ccc2cc(C(c3cccc(C(F)(F)F)c3)n3cncn3)ccc21 (racemic) [Compound 20, (±)-(1-amino-6-[1H-1,2,4-triazol-1-yl-[3-(trifluoromethyl)phenyl]methyl]-2(1H)-quinolinone]	5 mg/kg	–
764 nM	O=c1ccc2c(Cl)c(C(c3cccc(C(F)(F)F)c3)n3cncn3)ccc2[nH]1 (centres unmarked) [Compound 10]	10 mg/kg	–
270 nM	CC(C)C(c1cccc(C(F)(F)F)c1)(c1ccc2[nH]c(=O)ccc2c1)n1cncn1 (centres unmarked) [Compound 7]	> 20 mg/kg	–
154 nM	O=c1ccc2cc(C(c3cccc(C(F)(F)F)c3)n3cncn3)cc(F)c2[nH]1 (centres unmarked) [Compound 11]	10 mg/kg	–
18.2 nM	CCC(c1cccc(C(F)(F)F)c1)(c1ccc2[nH]c(=O)ccc2c1)n1cncn1 (centres unmarked) [Compound 6]	10 mg/kg	–
3.25 nM	Cn1c(=O)ccc2cc(C(C)(c3cccc(C(F)(F)F)c3)n3cncn3)ccc21 (centres unmarked) [Compound 14]	5 mg/kg	–
